Data from EP0554004A2, “Cephem compounds and antibacterial agents” (KATAYAMA SEIYAKUSYO CO. Ltd., priority 1992, dated 1993).
≈ marks a conversion by molar mass, not a printed value.

Legend:
clinically isolated MRSA = experiment: Antibacterial potency against clinically isolated MRSA (Test Example 2); assay type: cell-based, methicillin-resistant Staphylococcus aureus; details: Staphylococcus aureus, 52 strains of clinically isolated MRSA
Method: A test on the antibacterial potency against clinically isolated MRSA was conducted in the following way.
52 strains of clinically isolated MRSA were used, and MIC was determined for each of the strains according to the standard method of the Japan Chemotherapical Society as in Test Example 1. The minimum growth inhibitory concentration which inhibited growth of 50% of the strains tested was expressed as MIC50 (µg/ml), and the minimum growth inhibitory concentration which inhibited growth of 90% of the strains was expressed as MIC90 (µg/ml).
In this test, FMOX (flomoxef), IPM/CS (imipenem/cilastatin), CMZ (cefmetazole), MINO (minocycline) and DMPPC (methicillin) were used as control agents.

[1] = test system: Klebsiella pneumoniae IFO 3317; experiment: MIC against standard strains (Test Example 1); assay type: cell-based; details: IFO3317, Muller-Hinton agar, 37°C overnight
Method: (§1) By using each test strain cultured overnight at 37°C in a Muller-Hinton broth, there was prepared a bacterial solution with a bacterial cell population of 1 x 10^6 CFU/mi of the same bouillon. The bacterial solution was inoculated into the Muller-Hinton agar media each containing respectively one test agent and, after overnight incubation at 37°C, the minimum concentration that inhibited growth of the bacteria was determined and shown as MIC also in Table 1.
(§2) Staphylococcus aureus 167 and Staphylococcus aureus 195 used in the test were MRSA. CTM (cefotiam) and FMOX (flomoxef) were used as control agents.

Proteus vulgalis OX-19 = experiment: MIC against standard strains (Test Example 1); assay type: cell-based; details: Muller-Hinton agar, 37°C overnight
Method: as §1, §2

[2] = test system: Enterobacter cloacae ATCC 13407; experiment: MIC against standard strains (Test Example 1); assay type: cell-based; details: ATCC13407, Muller-Hinton agar, 37°C overnight
Method: as §1, §2

[3] = test system: Psuedomonas aeruginosa IFO 3445; experiment: MIC against standard strains (Test Example 1); assay type: cell-based; details: Muller-Hinton agar, 37°C overnight
Method: as §1, §2

[4] = test system: Morganella morganii IFO 3848; experiment: MIC against standard strains (Test Example 1); assay type: cell-based; details: IFO3848, Muller-Hinton agar, 37°C overnight
Method: as §1, §2

[5] = test system: Escherichia coli CSH2 (RE45); experiment: MIC against standard strains (Test Example 1); assay type: cell-based
Method: as §1, §2

B. subtilis ATCC6633 = experiment: MIC against standard strains (Test Example 3); assay type: cell-based; details: Bacillus subtilis; B. subtilis ATCC6633 (Test Example 3); read-out: MIC
Procedure, shortened: (§3)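 Agar dilution MIC; Mueller-Hinton agar; inoculum 1 x 10^6 CFU/ml from overnight 37°C MH broth culture; read after overnight incubation at 37°C; MIC = lowest concentration with no growth.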

M. luteus ATCC 9341 = experiment: MIC against standard strains (Test Example 3); assay type: cell-based; details: Micrococcus luteus, ATCC9341; M. luteus ATCC 9341 (Test Example 3); read-out: MIC
Procedure, shortened: as §3

A. calcoaceticos T59 = experiment: MIC against standard strains (Test Example 3); assay type: cell-based; details: A. calcoaceticos T59 (Test Example 3); read-out: MIC
Procedure, shortened: as §3

M. Morganii IFO3848 = experiment: MIC against standard strains (Test Example 3); assay type: cell-based; details: Morganella morganii; M. Morganii IFO3848 (Test Example 3); read-out: MIC
Procedure, shortened: as §3

P. vulugaris OX-19 = experiment: MIC against standard strains (Test Example 3); assay type: cell-based; details: P. vulugaris OX-19 (Test Example 3); read-out: MIC
Procedure, shortened: as §3

C. freundii ATCC8090 = experiment: MIC against standard strains (Test Example 3); assay type: cell-based; details: Citrobacter freundii; C. freundii ATCC8090 (Test Example 3); read-out: MIC
Procedure, shortened: as §3

K. pneumoniae No. 42 = experiment: MIC against standard strains (Test Example 3); assay type: cell-based; details: Klebsiella pneumoniae; K. pneumoniae No. 42 (Test Example 3); read-out: MIC
Procedure, shortened: as §3

P. mirabilis IFO3849 = experiment: MIC against standard strains (Test Example 3); assay type: cell-based; details: Proteus mirabilis; P. mirabilis IFO3849 (Test Example 3); read-out: MIC
Procedure, shortened: as §3

A. faecalis ATCC3750 = experiment: MIC against standard strains (Test Example 3); assay type: cell-based; details: Alcaligenes faecalis; A. faecalis ATCC3750 (Test Example 3); read-out: MIC
Procedure, shortened: as §3

E. coli CSH2 (RE45) = experiment: MIC against standard strains (Test Example 3); assay type: cell-based; details: Escherichia coli
Procedure, shortened: (§4)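 Each agent was incorporated into Mueller-Hinton agar, then seeded with 1 x 10^6 CFU/ml of bacteria from overnight broth culture. Plates stood overnight at 37°C before the lowest growth-inhibiting concentration was recorded as MIC.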

E. coli NIHJ JC-2 = experiment: MIC against standard strains (Test Example 3); assay type: cell-based; details: Escherichia coli, NIHJJC2; E. coli NIHJ JC-2 (Test Example 3); read-out: MIC
Procedure, shortened: as §3

S. aureus 167 = experiment: MIC against standard strains (Test Example 3); assay type: cell-based; details: Staphylococcus aureus; S. aureus 167 (MRSA) (Test Example 3); read-out: MIC
Procedure, shortened: as §3

E. coli CSH2 (RK1) = experiment: MIC against standard strains (Test Example 3); assay type: cell-based; details: Escherichia coli
Procedure, shortened: as §4

K. pneumoniae IFO3317 = experiment: MIC against standard strains (Test Example 3); assay type: cell-based; details: Klebsiella pneumoniae; K. pneumoniae IFO3317 (Test Example 3); read-out: MIC
Procedure, shortened: as §3

P. aeruginosa NCTC10490 = experiment: MIC against standard strains (Test Example 3); assay type: cell-based; details: Pseudomonas aeruginosa; P. aeruginosa NCTC10490 (Test Example 3); read-out: MIC
Procedure, shortened: as §3

E. cloacae ATCC13407 = experiment: MIC against standard strains (Test Example 3); assay type: cell-based; details: Enterobacter cloacae; E. cloacae ATCC13407 (Test Example 3); read-out: MIC
Procedure, shortened: as §3

S. aureus 209p JC-1 = experiment: MIC against standard strains (Test Example 3); assay type: cell-based; details: Staphylococcus aureus; S. aureus 209p JC-1 (Test Example 3); read-out: MIC
Procedure, shortened: as §3

S. epidemidis IAM1296 = experiment: MIC against standard strains (Test Example 3); assay type: cell-based; details: S. epidemidis IAM1296 (Test Example 3); read-out: MIC
Procedure, shortened: as §3

S. aureus 195 = experiment: MIC against standard strains (Test Example 3); assay type: cell-based; details: Staphylococcus aureus; S. aureus 195 (MRSA) (Test Example 3); read-out: MIC
Procedure, shortened: as §3

S. marcescens IAM1184 = experiment: MIC against standard strains (Test Example 3); assay type: cell-based; details: Serratia marcescens; S. marcescens IAM1184 (Test Example 3); read-out: MIC
Procedure, shortened: as §3

S. aureus Smith = experiment: MIC against standard strains (Test Example 3); assay type: cell-based; details: Staphylococcus aureus; S. aureus Smith (Test Example 3); read-out: MIC
Procedure, shortened: as §3

CO[C@@]1(NC(=O)CSC(F)F)C(=O)N2C(C(=O)O)=C(CSc3nnnn3CCO)CO[C@@H]21 [FMOX, flomoxef, reference compound] showed an MIC50 (clinically isolated MRSA; concentration inhibiting growth of 50% of the strains (Test Example 2)) of 8.16 µg/mL (≈ 16.4 µM), an MIC90 (clinically isolated MRSA; concentration inhibiting growth of 90% of the strains (Test Example 2)) of 40.2 µg/mL (≈ 81 µM) and an MIC [1] of 0.05 µg/mL (≈ 0.101 µM). The MIC (Proteus vulgalis OX-19) was 0.39 µg/mL (≈ 0.786 µM), the MIC [2] was 25 µg/mL (≈ 50.4 µM) and the MIC [3] was over 100 µg/mL. It also gave an MIC [4] of 0.39 µg/mL (≈ 0.786 µM), an MIC [5] of 0.1 µg/mL (≈ 0.201 µM) and an MIC (B. subtilis ATCC6633) of 0.2 µg/mL (≈ 0.403 µM). It also gave an MIC (M. luteus ATCC 9341) of 0.05 µg/mL (≈ 0.101 µM), an MIC (A. calcoaceticos T59) of 50 µg/mL (≈ 101 µM) and an MIC (M. Morganii IFO3848) of 0.39 µg/mL (≈ 0.786 µM). For the same molecule, the MIC (P. vulugaris OX-19) was 0.39 µg/mL (≈ 0.786 µM), the MIC (C. freundii ATCC8090) was 0.39 µg/mL (≈ 0.786 µM) and the MIC (K. pneumoniae No. 42) was 0.05 µg/mL (≈ 0.101 µM). For the same molecule, the MIC (P. mirabilis IFO3849) was 0.2 µg/mL (≈ 0.403 µM), the MIC (A. faecalis ATCC3750) was 0.1 µg/mL (≈ 0.201 µM) and the MIC (E. coli CSH2 (RE45)) was 0.05 µg/mL (≈ 0.101 µM). The MIC (E. coli NIHJ JC-2) was 0.05 µg/mL (≈ 0.101 µM), the MIC (S. aureus 167) was 50 µg/mL (≈ 101 µM) and the MIC (E. coli CSH2 (RK1)) was 0.05 µg/mL (≈ 0.101 µM). For the same molecule, the MIC (K. pneumoniae IFO3317) was 0.025 µg/mL (≈ 0.0504 µM), the MIC (P. aeruginosa NCTC10490) was over 100 µg/mL and the MIC (E. cloacae ATCC13407) was 25 µg/mL (≈ 50.4 µM). The MIC (S. aureus 209p JC-1) was 0.39 µg/mL (≈ 0.786 µM), the MIC (S. epidemidis IAM1296) was 0.2 µg/mL (≈ 0.403 µM) and the MIC (S. aureus 195) was 3.13 µg/mL (≈ 6.3 µM). It also gave an MIC (S. marcescens IAM1184) of 0.2 µg/mL (≈ 0.403 µM) and an MIC (S. aureus Smith) of 0.39 µg/mL (≈ 0.786 µM).
